{"source": "patent US10421755B2", "about": "“Salts of aza-bicyclic di-aryl ethers and methods to make them or their precursors” (Novartis AG, priority 2011, dated 2019)", "format_in_all_cases": "physicochemical", "key": {"[1]": {"assay": "Aqueous solubility"}, "[2]": {"assay": "Hygroscopicity (moisture gain at relative humidity)", "parameters": "Hygroscopy @ 85% RH: unit not given here"}, "[3]": {"assay": "Decomposition temperature", "parameters": "unit not given here", "conditions": "comparison table, Example 7"}, "[4]": {"assay": "Known multiple solid forms", "conditions": "comparison table, Example 7"}}}
{"smiles": "Cc1ccc(-c2ccc(O[C@H]3CN4CCC3CC4)cn2)cc1", "note": "[Compound A, (R)-3-(6-(4-methylphenyl)-pyridin-3-yloxy)-1-aza-bicyclo[2.2.2]octane]", "values": [{"measurement": "aqueous solubility (in words)", "setting": "[1]", "result": "low"}, {"measurement": "solubility", "setting": "[1]; aqueous medium, comparison table, Example 7", "result": 50, "unit": "µg/mL"}, {"measurement": "hygroscopicity (in words)", "setting": "[2]", "result": "hygroscopic"}, {"measurement": "moisture gain", "setting": "[2]; at 93% relative humidity (RH)", "result": 2, "unit": "%"}, {"measurement": "Hygroscopy @ 85% RH", "setting": "[2]; comparison table, Example 7", "result": "~2"}, {"measurement": "Decomposition temperature", "setting": "[3]", "result": 224}, {"measurement": "Known Multiple forms", "setting": "[4]", "result": "Yes"}]}
